Patent US20260021046A1, “LIPID NANOPARTICLE AND PHARMACEUTICAL COMPOSITION” (NATIONAL UNIVERSITY CORPORATION HOKKAIDO UNIVERSITY, priority 2022, published 2026)

Experiments:
hepatic stellate cells = assay: In vivo mRNA delivery to hepatic stellate cells in TAA-induced liver fibrosis model mice; details: 24 hours
Method: Thioacetamide (TAA (TCI, Japan))-induced liver fibrosis models were generated in 4-week-old male BALB/c mise (Sankyo laboratories, Japan). Specifically, TAA dissolved in saline was injected intraperitoneally at an amount of 200 mg/kg of TAA per kg of body weight. This was repeated every 3 days for a total of 10 times. The livers of the liver fibrosis model mice were examined by histopathology and hydroxyproline quantitative assay (Cell Biolabs Inc, USA), and the activation of hepatic stellate cells (HSCs) was confirmed by quantitative real-time polymerase chain reaction (qRT-PCR).
The lipid nanoparticles prepared by using CL15A6 encapsulated the above-described EGFP mRNA or firefly luciferase (FLuc) mRNA (TriLink BioTechnologies, USA), and the lipid nanoparticles were administered intravenously to mice via the tail vein so that the amount of RNA per kg of body weight was 1 mg/kg. Twenty-four hours after the administration, hepatic stellate cells and hepatocytes were collected from the livers of the mice as described in NPL 15. For EGFP mRNA, FACS was used to evaluate delivery efficiency and transfection efficiency, and for FLuc mRNA, the luciferase assay was used to evaluate delivery efficiency as described in NPL 16. • [NPL 15] Ingmar Mederacke, et al., “High-yield and high-purity isolation of hepatic stellate cells from normal and fibrotic mouse livers”, Nature Protocols, Vol. 10, pp. 305-315 • [NPL 16] Ikramy A. Khalil, et al., “Synergism between a cell penetrating peptide and a pH-sensitive cationic lipid in efficient gene delivery based on double-coated nanoparticles”, Journal of Controlled Release, Vol. 275, pp. 107-116
First, the microchannel device (iLiNP device) was operated under different conditions to prepare lipid nanoparticles with different average particle sizes. Specifically, lipid nanoparticles with an average particle size of more than 150 nm (e.g., 180 nm), lipid nanoparticles with an average particle size of 100 to 150 nm (e.g., 130 nm), and lipid nanoparticles with an average particle size of less than 100 nm (e.g., 90 nm) were prepared. The prepared lipid nanoparticles were administered intravenously to mice with liver fibrosis, and the mRNA delivery efficiency and transfection efficiency with respect to hepatic stellate cells and hepatocytes were evaluated 24 hours later.
Next, lipid nanoparticles with different nitrogen/phosphate (N/P) ratios were prepared by mixing a lipid composition containing CL15A6 with mRNA at different ratios. Specifically, lipid nanoparticles with N/P ratios of 4, 8, 12, 16, and 20 were prepared. The prepared lipid nanoparticles were intravenously administered to mice with liver fibrosis, and the mRNA delivery efficiency and transfection efficiency with respect to hepatic stellate cells and hepatocytes were evaluated 24 hours later.
Next, lipid nanoparticles containing different types of helper phospholipids were prepared by changing the type of helper phospholipid in the lipid composition containing CL15A6. As the unsaturated phosphatidylethanolamine, 1,2-dioleoyl-sn-glycero-3-phosphoethanolamine (DOPE) was used. As the unsaturated phosphatidylcholine, 1,2-dioleoyl-sn-glycero-3-phosphocholine (DOPC) was used. As the saturated phospholipid, 1,2-distearoyl-sn-glycero-3-phosphocholine (DSPC) was used. The prepared lipid nanoparticles were intravenously administered to mice with liver fibrosis, and the mRNA delivery efficiency and transfection efficiency with respect to hepatic stellate cells and hepatocytes were evaluated 24 hours later.
Next, lipid nanoparticles containing helper phospholipid (DOPE) at different molar percentages were prepared by changing the molar ratio of the helper phospholipid (DOPE). The prepared lipid nanoparticles were intravenously administered to mice with liver fibrosis, and the mRNA delivery efficiency and transfection efficiency with respect to hepatic stellate cells and hepatocytes were evaluated 24 hours later. […]

[1] = Average particle size, PDI, zeta potential (dynamic light scattering) and RNA encapsulation efficiency (RiboGreen) of lipid nanoparticles; type: physicochemical
Method: The average particle size, particle size distribution, and zeta potential of the lipid nanoparticles were measured using a Zetasizer Nano ZS (Malvern Instruments Ltd, UK) by dynamic light scattering and the form of lipid nanoparticle was measured using a transmission electron-microscope as described in NPL 12. The efficiency of mRNA encapsulation was estimated by RiboGreen fluorometry as described in NPL 13. Although the respective values vary depending on the type of pH-sensitive cationic lipid, the composition of the lipids constituting the lipid nanoparticles, the preparation conditions of the lipid nanoparticles, and the like, the average particle size of the lipid nanoparticles was in the range of 80 to 350 nm, the PDI was in the range of 0.05 to 0.4, the zeta potential was in the range of −16 to +5 mV, and the efficiency of mRNA encapsulation was 75 to 95%. • [NPL 12] Mahmoud A. Younis, et al., “A Multifunctional Lipid-Based Nanodevice for the Highly Specific Codelivery of Sorafenib and Midkine siRNA to Hepatic Cancer Cells”, Molecular Pharmaceutics, Vol. 16, pp. 4031-4044 • [NPL 13] Mahmoud M. Abd Elwakil, et al., “Engineered &-decalactone lipomers bypass the liver to selectively in vivo deliver mRNA to the lungs without targeting ligands”, Materials Horizons, Vol. 8, pp. 2251-2259
The average particle size, particle size distribution, and zeta potential of the lipid nanoparticles were measured in the same manner as in Example 1 to estimate the efficiency of SMO-siRNA encapsulation. The relationship between the flow rate ratio of the aqueous phase to the organic phase, the average particle size, particle size distribution, zeta potential, and SMO-siRNA encapsulation efficiency of the lipid nanoparticles prepared at the same flow rate ratio when CL15H6 was used as the pH-sensitive cationic lipid is shown in Table 3 below. In the subsequent experiments, lipid nanoparticles were prepared at a ratio of 4:1 (aqueous phase: organic phase), which provided the highest encapsulation efficiency, the smallest average particle size, and the smallest PDI.

[2] = system: activated hepatic stellate cell line LX-2; assay: EGFP mRNA delivery and transfection screening by FACS; type: cell-based; details: LX-2 cells; EGFP mRNA lipid nanoparticles, 250 ng mRNA per well
Method: Fourteen types of lipid nanoparticles prepared were screened with activated hepatic stellate cell line LX-2 (Merck (Germany) and hepatocyte line FL83B (ATCC, USA).
Twenty-four hours prior to the experiment, cells were seeded in 6-well plates at 1×10^5 cells/well and incubated at 37° C. The medium was aspirated and the cells were washed with (−) PBS and then treated with lipid nanoparticles encapsulating EGFP mRNA (TriLink BioTechnologies, USA) in 1.5 ml of growth medium for 24 hours. The amount of mRNA per well was 250 ng. Cells were then washed with (−) PBS and incubated in fresh medium for an additional 21 hours. The median fluorescence intensity of EGFP and the percentage of transfected cells were evaluated by fluorescence activated cell sorting (FACS) using a flow cytometer (Cytoflex, Beckman Coulter, USA).

[3] = CL15A6 lipid nanoparticles iv, DMG-PEG2K 3 to 5 mol %
[4] = CL15A6 lipid nanoparticles, 1 mg/kg RNA iv, when particle size was reduced (>150 nm, 100 to 150 nm, <100 nm)
[5] = lipid nanoparticles CL15A6:DOPE:cholesterol:DMG-PEG2K 5:3:2:0.3

- particle size ([1]; CL15A6 mRNA lipid nanoparticles, DMG-PEG2K 1.5 mol %): 100 nm
- Average particle size ([1]; CL15A6 mRNA lipid nanoparticles, N/P ratio increased from 4 to 8): 80 nm
- Average particle size [1, 5]: 80 nm
- PDI [1, 5]: < 0.1
SMILES: CCCCC/C=C\C/C=C\CCCCCCCCC(O)(CCCCCCCC/C=C\C/C=C\CCCCC)CCCCOC(=O)C1CCN(C)CC1 [CL15A6, (14z,17z)-5-hydroxy-5-((9z,12z)-octadeca-9,12-dien-1-yl)tricosa-14,17-dien-1-yl 1-methylpiperidine-4-carboxylate]
- mRNA delivery efficiency (hepatic stellate cells; CL15A6 lipid nanoparticles iv, DMG-PEG2K 1.5 mol %): decreased
- efficiency of mRNA delivery to hepatic stellate cells (hepatic stellate cells; [3]): high
- hepatic stellate cells transfected in vivo (hepatic stellate cells; [3]): ≥ 80%
- delivery of mRNA to hepatic stellate cells (hepatic stellate cells; CL15A6 lipid nanoparticles iv, DOPE 20 to 30 mol %): significantly improved
- delivery of mRNA to hepatic stellate cells (hepatic stellate cells; CL15A6 lipid nanoparticles iv, DOPE 40 mol %): reduced
- delivery of mRNA to hepatic stellate cells (hepatic stellate cells; CL15A6 lipid nanoparticles iv, N/P ratio increased from 4 to 8): significantly improved
- mRNA delivery efficiency (hepatic stellate cells; CL15A6 lipid nanoparticles iv, N/P ratio increased from 16 to 20): decreased
- mRNA delivery to hepatic stellate cells (hepatic stellate cells; CL15A6 lipid nanoparticles iv, helper phospholipid DOPE compared to DOPC and DSPC): significantly improved
- mRNA delivery efficiency to hepatic stellate cells (hepatic stellate cells; [4]): linearly improved
- transfection efficiency of hepatic stellate cells (hepatic stellate cells; [4]): linearly improved
- mRNA delivery efficiency (median fluorescence intensity of EGFP) [2]: high and promising
- transfection efficiency (percentage of transfected cells) [2]: promising
